Molecular target: T1, purified human HDAC6 (Homo sapiens, UniProt Q9UBN7)
T1 construct: purchased BPS Bioscience 5006
T1 sequence (Q9UBN7 1-1215): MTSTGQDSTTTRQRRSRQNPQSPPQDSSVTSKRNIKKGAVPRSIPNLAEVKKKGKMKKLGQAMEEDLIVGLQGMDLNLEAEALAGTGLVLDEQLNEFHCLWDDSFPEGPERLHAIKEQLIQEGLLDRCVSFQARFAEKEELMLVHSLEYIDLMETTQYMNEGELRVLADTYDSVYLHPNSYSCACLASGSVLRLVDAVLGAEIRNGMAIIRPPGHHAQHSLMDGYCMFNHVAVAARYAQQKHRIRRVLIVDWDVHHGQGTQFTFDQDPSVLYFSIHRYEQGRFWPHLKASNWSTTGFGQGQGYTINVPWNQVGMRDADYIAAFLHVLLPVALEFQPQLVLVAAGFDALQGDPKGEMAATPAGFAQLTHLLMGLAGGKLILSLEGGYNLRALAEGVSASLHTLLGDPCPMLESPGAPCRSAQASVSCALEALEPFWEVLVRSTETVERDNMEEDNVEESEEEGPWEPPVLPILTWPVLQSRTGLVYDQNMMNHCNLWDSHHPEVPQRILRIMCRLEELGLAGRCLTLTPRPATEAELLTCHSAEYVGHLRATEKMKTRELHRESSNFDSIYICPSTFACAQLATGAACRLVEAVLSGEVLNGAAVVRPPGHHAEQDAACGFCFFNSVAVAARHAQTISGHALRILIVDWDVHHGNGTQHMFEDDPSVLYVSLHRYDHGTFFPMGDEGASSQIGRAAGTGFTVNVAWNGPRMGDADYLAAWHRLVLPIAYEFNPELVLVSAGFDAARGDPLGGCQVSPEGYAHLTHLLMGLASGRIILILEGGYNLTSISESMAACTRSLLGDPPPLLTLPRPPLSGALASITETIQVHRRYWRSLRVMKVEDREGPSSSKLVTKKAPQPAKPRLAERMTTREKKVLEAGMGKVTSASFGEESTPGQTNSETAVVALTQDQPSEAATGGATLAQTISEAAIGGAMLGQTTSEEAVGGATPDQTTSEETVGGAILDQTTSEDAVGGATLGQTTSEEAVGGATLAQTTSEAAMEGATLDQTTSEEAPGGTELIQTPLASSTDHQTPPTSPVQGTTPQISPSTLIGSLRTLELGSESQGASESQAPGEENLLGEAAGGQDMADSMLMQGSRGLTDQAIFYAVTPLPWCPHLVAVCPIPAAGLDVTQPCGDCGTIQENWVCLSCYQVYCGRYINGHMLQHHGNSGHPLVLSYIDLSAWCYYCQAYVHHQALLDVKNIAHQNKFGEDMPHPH
Experiment: HDAC6 Enzyme Assay
Assay type: biochemical
Method in brief: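 Purified human HDAC6 incubated 1 h at 30 °C with Ac-Arg-Gly-Lys(Ac)-AMC and compound; trichostatin A stop, trypsin release of AMC, fluorescence Ex 340/Em 460 nm. IC50 from concentration–response relative to DMSO.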

[1] = purified human HDAC6, substrate Ac-Arg-Gly-Lys(Ac)-AMC, 1 hour at 30° C., reported as bins

Row | SMILES | IC50 (bin: greater than 1 μM) [nM] | IC50 [1] [nM]
1 | COc1cc(C(=O)NO)ccc1C(C)NC(=O)C(C)(C)C (stereo not shown) [Compound I-484, 4-{1-[(2,2-dimethylpropanoyl)amino]ethyl}-N-hydroxy-3-methoxybenzamide] | > 1000 | –
2 | CC(NC(=O)CC(C)(C)C)c1cccc(C(=O)NO)c1 (stereo not shown) [Compound I-333, 3-{1-[(3,3-dimethylbutanoyl)amino]ethyl}-N-hydroxybenzamide] | > 1000 | –
3 | CC(C)[C@@H](NS(=O)(=O)c1ccc(C(F)(F)F)cc1)c1ccc(C(=O)NO)cc1 [Compound I-189, N-hydroxy-4-[(1R)-2-methyl-1-({[4-(trifluoromethyl)phenyl]sulfonyl}amino)propyl]benzamide] | > 1000 | –
4 | CC(NC(=O)C1(c2ccccc2)CCCC1)c1ccc(C(=O)NO)cc1 (stereo not shown) [Compound I-298, N-hydroxy-4-(1-{[(1-phenylcyclopentyl)carbonyl]amino}ethyl)benzamide] | – | 100 to 500
5 | CC(C)[C@@H](NC(=O)C12CC3CC(CC(O)(C3)C1)C2)c1ccc(C(=O)NO)cc1 [Compound I-223, 3-hydroxy-N-((1R)-1-{4-[(hydroxyamino)carbonyl]phenyl}-2-methylpropyl)adamantane-1-carboxamide] | – | < 100
6 | C[C@H](NC(=O)c1cc2ccccc2s1)c1ccc(C(=O)NO)cc1 [Compound I-53, N-((1S)-1-{4-[(hydroxyamino)carbonyl]phenyl}ethyl)-1-benzothiophene-2-carboxamide] | – | < 100
7 | CC(NC(=O)Nc1ccccc1-c1ccccc1)c1ccc(C(=O)NO)cc1 (stereo not shown) [Compound I-384, 4-(1-{[(biphenyl-2-ylamino)carbonyl]amino}ethyl)-N-hydroxybenzamide] | – | < 100
8 | CC(C)C(NC(=O)c1ccc(-c2ccccc2)[nH]c1=O)c1ccc(C(=O)NO)cc1 (stereo not shown) [Compound I-375, N-(1-{4-[(hydroxyamino)carbonyl]phenyl}-2-methylpropyl)-2-oxo-6-phenyl-1,2-dihydropyridine-3-carboxamide] | – | < 100
9 | Cc1cc(C)cc(NC(=O)NC(C)c2ccc(C(=O)NO)cc2)c1 (stereo not shown) [Compound I-397, 4-[1-({[(3,5-dimethylphenyl)amino]carbonyl}amino)ethyl]-N-hydroxybenzamide] | – | < 100
10 | Cc1c(C(=O)N[C@@H](c2ccc(C(=O)NO)cc2)C(C)C)oc2ccccc12 [Compound I-187, N-((1R)-1-{4-[(hydroxyamino)carbonyl]phenyl}-2-methylpropyl)-3-methyl-1-benzofuran-2-carboxamide] | – | < 100
11 | CC(NC(=O)Nc1ccccc1F)c1ccc(C(=O)NO)cc1 (stereo not shown) [Compound I-74, 4-[1-({[(2-fluorophenyl)amino]carbonyl}amino)ethyl]-N-hydroxybenzamide] | – | < 100
12 | C[C@@H](NC(=O)c1cc2ccccc2o1)c1cccc(C(=O)NO)c1 [Compound I-201, N-((1R)-1-{3-[(hydroxyamino)carbonyl]phenyl}ethyl)-1-benzofuran-2-carboxamide] | – | 100 to 500
13 | CCC[C@@H](NC(=O)NC12CC3CC(CC(C3)C1)C2)c1ccc(C(=O)NO)cc1 [Compound I-18, 4-[(1R)-1-({[1-adamantylamino]carbonyl}amino)butyl]-N-hydroxybenzamide] | – | < 100
14 | Cc1cc(C(=O)NC(c2ccc(C(=O)NO)cc2)C(C)(C)C)c(C)[nH]1 (stereo not shown) [Compound I-310, N-(1-{4-[(hydroxyamino)carbonyl]phenyl}-2,2-dimethylpropyl)-2,5-dimethyl-1H-pyrrole-3-carboxamide] | – | 100 to 500
15 | CC(=O)c1cccc(NC(=O)NC(C)c2ccc(C(=O)NO)cc2)c1 (stereo not shown) [Compound I-358, 4-[1-({[(3-acetylphenyl)amino]carbonyl}amino)ethyl]-N-hydroxybenzamide] | – | < 100
16 | CC(NC(=O)C1CC1)c1ccc(C(=O)NO)cc1 (stereo not shown) [Compound I-239, 4-{1-[(cyclopropylcarbonyl)amino]ethyl}-N-hydroxybenzamide] | – | 100 to 500
17 | Cc1ccc(S(=O)(=O)NC(C)c2ccc(C(=O)NO)cc2)cc1 (stereo not shown) [Compound I-266, N-hydroxy-4-(1-{[(4-methylphenyl)sulfonyl]amino}ethyl)benzamide] | – | 100 to 500

Row | SMILES | IC50 (bin: greater than 1 μM) [nM] | IC50 [1] [nM]
18 | CC(NC(=O)CC1Cc2ccccc2C1)c1ccc(C(=O)NO)cc1 (stereo not shown) [Compound I-357, 4-{1-[(2,3-dihydro-1H-inden-2-ylacetyl)amino]ethyl}-N-hydroxybenzamide] | – | < 100
19 | CC(NC(=O)NC(C)c1ccc(C(=O)NO)cc1)c1ccccc1 (stereo not shown) [Compound I-196, N-hydroxy-4-[1-({[(1-phenylethyl)amino]carbonyl}amino)ethyl]benzamide] | – | 100 to 500
20 | Cc1ccc2[nH]c(C(=O)NC(c3ccc(C(=O)NO)cc3)C(C)C)cc2c1 (stereo not shown) [Compound I-69, N-(1-{4-[(hydroxyamino)carbonyl]phenyl}-2-methylpropyl)-5-methyl-1H-indole-2-carboxamide] | – | < 100
21 | Cc1c(C(=O)NC(C)c2cccc(C(=O)NO)c2)cnn1-c1ccccc1 (stereo not shown) [Compound I-257, N-(1-{3-[(hydroxyamino)carbonyl]phenyl}ethyl)-5-methyl-1-phenyl-1H-pyrazole-4-carboxamide] | > 1000 | –
22 | CC(C)C(NC(=O)c1nc2ccccc2s1)c1ccc(C(=O)NO)cc1 (stereo not shown) [Compound I-191, N-(1-{4-[(hydroxyamino)carbonyl]phenyl}-2-methylpropyl)-1,3-benzothiazole-2-carboxamide] | – | < 100
23 | CC(NC(=O)c1cccn1C)c1cccc(C(=O)NO)c1 (stereo not shown) [Compound I-263, N-(1-{3-[(hydroxyamino)carbonyl]phenyl}ethyl)-1-methyl-1H-pyrrole-2-carboxamide] | > 1000 | –
24 | CC(C)C(NC(=O)C(c1ccccc1)C(C)C)c1ccc(C(=O)NO)cc1 (stereo not shown) [Compound I-289, N-hydroxy-4-{2-methyl-1-[(3-methyl-2-phenylbutanoyl)amino]propyl}benzamide] | > 1000 | –
25 | CC(NC(=O)Nc1ccc(Oc2ccccc2)cc1)c1ccc(C(=O)NO)cc1 (stereo not shown) [Compound I-20, N-hydroxy-4-[1-({[(4-phenoxyphenyl)amino]carbonyl}amino)ethyl]benzamide] | – | 100 to 500
26 | Cc1ccc2[nH]c(C(=O)NC(c3ccc(C(=O)NO)cc3)C(C)(C)C)c(C)c2c1 (stereo not shown) [Compound I-329, N-(1-{4-[(hydroxyamino)carbonyl]phenyl}-2,2-dimethylpropyl)-3,5-dimethyl-1H-indole-2-carboxamide] | – | < 100
27 | CC(C)C(NC(=O)c1ccn(C)n1)c1ccc(C(=O)NO)cc1 (stereo not shown) [Compound I-389, N-(1-{4-[(hydroxyamino)carbonyl]phenyl}-2-methylpropyl)-1-methyl-1H-pyrazole-3-carboxamide] | – | < 100
28 | CCC[C@@H](NC(=O)C(C)(C)C)c1ccc(C(=O)NO)cc1 [Compound I-365, 4-{(1R)-1-[(2,2-dimethylpropanoyl)amino]butyl}-N-hydroxybenzamide] | – | < 100
29 | CC(NC(=O)c1ccc2nsnc2c1)c1ccc(C(=O)NO)cc1 (stereo not shown) [Compound I-233, N-(1-{4-[(hydroxyamino)carbonyl]phenyl}ethyl)-2,1,3-benzothiadiazole-5-carboxamide] | – | < 100
30 | CC(C)C(NC(=O)c1cc2cc(Cl)ccc2[nH]1)c1ccc(C(=O)NO)cc1 (stereo not shown) [Compound I-247, 5-chloro-N-(1-{4-[(hydroxyamino)carbonyl]phenyl}-2-methylpropyl)-1H-indole-2-carboxamide] | – | < 100
31 | CC(NS(=O)(=O)c1ccc(F)cc1)c1ccc(C(=O)NO)cc1 (stereo not shown) [Compound I-2, 4-(1-{[(4-fluorophenyl)sulfonyl]amino}ethyl)-N-hydroxybenzamide] | – | 100 to 500
32 | CC(C)C(NC(=O)c1ccc(-c2ccc(F)cc2)cc1)c1ccc(C(=O)NO)cc1 (stereo not shown) [Compound I-143, 4′-fluoro-N-(1-{4-[(hydroxyamino)carbonyl]phenyl}-2-methylpropyl)biphenyl-4-carboxamide] | – | < 100
33 | CC(NC(=O)C1CCCC1)c1cccc(C(=O)NO)c1 (stereo not shown) [Compound I-311, 3-{1-[(cyclopentylcarbonyl)amino]ethyl}-N-hydroxybenzamide] | > 1000 | –
34 | COc1cc(C(=O)NC(C)c2ccc(C(=O)NO)cc2)ccc1F (stereo not shown) [Compound I-164, 4-fluoro-N-(1-{4-[(hydroxyamino)carbonyl]phenyl}ethyl)-3-methoxybenzamide] | – | < 100

Reference: US9382197B2, “Substituted hydroxamic acids and uses thereof” (Millennium Pharmaceuticals, Inc., priority 2010, dated 2016)
